From patent US20260130933A1, “PHARMACEUTICAL COMPOSITION FOR PREVENTION OR TREATMENT OF NEPHROPATHY AND/OR DIABETES MELLITUS, COMPRISING ENAVOGLIFLOZIN” (DAEWOONG PHARMACEUTICAL CO., LTD., priority 2022, published 2026)

Assay: Example 2: phase 3 trial, enavogliflozin 0.3 mg vs dapagliflozin 10 mg once a day for 24 weeks added to metformin in patients with type 2 diabetes (same efficacy, exploratory and safety endpoints)
Assay type: in vivo, human
Conditions: for Change from baseline in total cholesterol, ANCOVA LS mean difference / Change from baseline in Total cholesterol, ANCOVA LS mean (SE) / Change from baseline in Total cholesterol, Mean (SD) / Change from baseline in total cholesterol, Median / fasting Total cholesterol, Mean (SD) / fasting Total cholesterol, Median: modified per-protocol set 1; for Change from baseline in total cholesterol, ANCOVA LS mean difference / Change from baseline in FPG, ANCOVA LS mean difference / Change from baseline in HbA1c, ANCOVA LS mean difference / Change from baseline in body weight, ANCOVA LS mean difference / Change from baseline in fasting c-peptide, ANCOVA LS mean difference / Odds ratio for achieving HbA1c target of <6.5%, logistic regression model / Odds ratio for achieving therapeutic glycemic response, logistic regression model: enavogliflozin 0.3 mg vs dapagliflozin 10 mg
Experimental: Subjects who met the inclusion/exclusion criteria were administered a placebo of the clinical trial drug under single-blind (subject blinding) conditions during a 2-week run-in period while continuing to receive metformin. […] The randomized subjects were administered two tablets of the clinical trial drug for each administration group once a day, and then visited the institution at weeks 6, 12, 18, and 24 during the 24-week administration period to conduct efficacy and safety evaluations.
• 1. Change in HbA1c at week 24 after administration of clinical trial drug compared to Visit 2 (randomization)
• 1. Change in HbA1c at each time point of weeks 6, 12, and 18 after administration of clinical trial drug compared to Visit 2 (randomization) • 2. Change in FPG at each time point of weeks 6, 12, 18, and 24 after administration of clinical trial drug compared to Visit 2 (randomization) • 3. Proportion of subjects achieving HbA1c<7% at each time point of weeks 6, 12, 18, and 24 after administration of clinical trial drug • 4. Proportion of subjects achieving HbA1c<6.5% at each time point of weeks 6, 12, 18, and 24 after administration of clinical trial drug • 5. Proportion of subjects achieving therapeutic response (HbA1c change (HbA1c at Visit 2-HbA1c at each evaluation time point)>0.5% or HbA1c<7% at each evaluation time point compared to Visit 2 (randomization)) at each time point of weeks 6, 12, 18 and 24 after administration of clinical trial drug
• 1. Change in fasting c-peptide at each time point of weeks 6, 12, 18, and 24 after administration of clinical trial drug compared to Visit 2 (randomization) • 2. Change in body weight at each time point of weeks 6, 12, 18, and 24 after administration of clinical trial drug compared to Visit 2 (randomization) • 3. Change in fasting lipid concentration (total cholesterol, LDL-C, HDL-C, and triglycerides) at each time point of weeks 6, 12, 18, and 24 after administration of clinical trial drug compared to Visit 2 (randomization) • 4. Changes in systolic or diastolic blood pressure at each time point of weeks 6, 12, 18, and 24 after administration of clinical trial drug compared to Visit 2 (randomization) • 5. Changes in β-cell function and insulin resistance measured by HOMA-β and HOMA-IR at each time point of weeks 6, 12, 18, and 24 after administration of clinical trial drug compared to Visit 2 (randomization) • 6. Changes in renal function-related indicators (UACR, UGCR) measured by UACR at each time point of weeks 6, 12, 18, and 24 after administration of clinical trial drug compared to Visit 2 (randomization) • 7. Changes in obesity-related indicators (adiponectin, leptin) at each time point of weeks 6, 12, 18, and 24 after administration of clinical trial drug compared to Visit 2 (randomization)

[1] = Week 24, mPPS1, enavogliflozin minus dapagliflozin
[2] = Week 24, mPPS2, enavogliflozin minus dapagliflozin
[3] = week 6, enavogliflozin 0.3 mg, dapagliflozin 10 mg
[4] = week 6, per-protocol set, enavogliflozin 0.3 mg, dapagliflozin 10 mg
[5] = week 12, enavogliflozin 0.3 mg, dapagliflozin 10 mg
[6] = week 12, per-protocol set, enavogliflozin 0.3 mg, dapagliflozin 10 mg

## OC[C@H]1O[C@@H](c2cc(Cc3ccc(C4CC4)cc3)c(Cl)c3c2CCO3)[C@H](O)[C@@H](O)[C@@H]1O [Enavogliflozin, (2S,3R,4R,5S,6R)-2-(7-chloro-6 (4-cyclopropylbenzyl)-2,3-dihydrobenzofuran-4-yl)-6-(hydroxymethyl)tetrahydro-2H-pyran-3,4,5-triol]
Week 24, mPPS1
  Triglycerides, Mean (SD): 119.62(58.93) mg/dL
  Triglycerides, Median: 104.00 mg/dL
[1]
  HDL-C change from baseline, LS mean difference: -0.14 mg/dL
  LDL-C change from baseline, LS mean difference: 0.71 mg/dL
  triglycerides change from baseline, LS mean difference: 1.63 mg/dL
Week 24, mPPS2
  Diastolic blood pressure change from baseline, ANCOVA LS mean (SE): −5.41 mmHg
  Diastolic blood pressure change from baseline, Mean (SD): −5.40 mmHg
  Diastolic blood pressure change from baseline, Median: −6.00 mmHg
  Diastolic blood pressure, Mean (SD): 71.65 mmHg
  Diastolic blood pressure, Median: 71.00 mmHg
  Systolic blood pressure change from baseline, ANCOVA LS mean (SE): −5.93(1.01) mmHg
  Systolic blood pressure change from baseline, Mean (SD): −6.34(9.75) mmHg
  Systolic blood pressure change from baseline, Median: −5.00 mmHg
  Systolic blood pressure, Mean (SD): 123.38(12.55) mmHg
  Systolic blood pressure, Median: 122.00 mmHg
[2]
  diastolic blood pressure change from baseline, LS mean difference: −1.15 mmHg
  systolic blood pressure change from baseline, LS mean difference: 0.63 mmHg
Week 6
  FPG change from baseline, LS mean (SE): −28.07(2.14) mg/dL
  HOMA-IR change from baseline, LS mean (SE): −1.47(0.14)
  HOMA-β change from baseline, LS mean (SE): 7.22(5.44)
  HbA1c change from baseline, LS mean (SE): −0.68(0.04) % p
  LDL-C change from baseline, LS mean (SE): −0.09(1.89) mg/dL
  Subjects achieving HbA1c target of <7%: (53.68) %
  Subjects achieving HbA1c<6.5%: 12.63%
  Subjects achieving therapeutic response (HbA1c change >0.5% or HbA1c<7%): 78.95%
  UACR change from baseline, LS mean (SE): −12.75(10.48) g/kg
  UGCR change from baseline, LS mean (SE): 65.72(2.70) mg/mg
  diastolic blood pressure change from baseline, LS mean (SE): −2.75(0.69) mmHg
  fasting c-peptide change from baseline, LS mean (SE): −0.07(0.02) ng/ml
  leptin change from baseline, LS mean (SE): −2.43(0.46) ng/mL
  Change from baseline in total cholesterol, ANCOVA LS mean difference: -2.10 mg/dL
Week 6, vs dapagliflozin
  FPG change from baseline, LS mean difference: -4.27 mg/dL
  HDL-C change from baseline, LS mean difference: -0.49 mg/dL
  HOMA-IR change from baseline, LS mean difference: −0.16
  HOMA-β change from baseline, LS mean difference: 9.01
  HbA1c change from baseline, LS mean difference: −0.05 % p
  LDL-C change from baseline, LS mean difference: -4.29 mg/dL
  Odds ratio for achieving HbA1c<6.5%: 0.83
  Odds ratio for achieving HbA1c<7%: 1.06
  Odds ratio for achieving therapeutic response: 0.98
  UACR change from baseline, LS mean difference: −20.88
  UGCR change from baseline, LS mean difference: 15.62 mg/mg
  body weight change from baseline, LS mean difference: 0.04 kg
  diastolic blood pressure change from baseline, LS mean difference: −1.28 mmHg
  fasting c-peptide change from baseline, LS mean difference: 0.00 ng/mL
  leptin change from baseline, LS mean difference: -0.81 ng/mL
  systolic blood pressure change from baseline, LS mean difference: −0.58 mmHg
  total cholesterol change from baseline, LS mean difference: -2.10 mg/dL
  triglyceride change from baseline, LS mean difference: 18.76 mg/dL
Week 6, listed as enavogliflozin
  Subjects achieving HbA1c target of <7%: 53.68%
[3]
  Change from baseline in Total cholesterol, ANCOVA LS mean (SE): 4.77(2.19) mg/dL
  Change from baseline in Total cholesterol, Mean (SD): 4.34(17.75) mg/dL
  Change from baseline in total cholesterol, Median: 3.00 mg/dL
  fasting Total cholesterol, Mean (SD): 155.77(35.37) mg/dL
  fasting Total cholesterol, Median: 147.00 mg/dL
Week 6, per-protocol set
  Change from baseline in FPG, ANCOVA LS mean difference: -4.27 mg/dL
  Change from baseline in HbA1c, ANCOVA LS mean difference: −0.05 % p
  Change from baseline in body weight, ANCOVA LS mean difference: 0.04 kg
  Change from baseline in fasting c-peptide, ANCOVA LS mean difference: 0.00 ng/mL
  Odds ratio for achieving HbA1c target of <6.5%, logistic regression model: 0.83
  Odds ratio for achieving therapeutic glycemic response, logistic regression model: 0.98
[4]
  Change from baseline in FPG, ANCOVA LS mean (SE): -28.07 mg/dL
  Change from baseline in FPG, Mean (SD): -26.91 mg/dL
  Change from baseline in FPG, Median: -27.00 mg/dL
  Change from baseline in HbA1c, ANCOVA LS mean (SE): −0.68 % p
  Change from baseline in HbA1c, Mean (SD): −0.62 % p
  Change from baseline in HbA1c, Median: −0.57 % p
  Change from baseline in body weight, ANCOVA LS mean (SE): −1.56(0.20) kg
  Change from baseline in body weight, Mean (SD): −1.56(2.30) kg
  Change from baseline in body weight, Median: -1.70 kg
  Change from baseline in fasting c-peptide, ANCOVA LS mean (SE): −0.07(0.02) ng/mL
  Change from baseline in fasting c-peptide, Mean (SD): −0.06(0.19) ng/mL
  Change from baseline in fasting c-peptide, Median: -0.03 ng/mL
  FPG, Mean (SD): 118.44 mg/dL
  FPG, Median: 115.00 mg/dL
  HbA1c, Mean (SD): 7.13%
  HbA1c, Median: 6.98%
  Subjects achieving HbA1c target of <6.5%, (%): (12.63) %
  Subjects achieving therapeutic glycemic response, (%): (78.95) %
  body weight, Mean (SD): 68.61(11.27) kg
  body weight, Median: 67.30 kg
  fasting c-peptide, Mean (SD): 0.66(0.24) ng/mL
  fasting c-peptide, Median: 0.60 ng/mL
Week 12
  FPG change from baseline, LS mean (SE): −29.70(1.96) mg/dL
  HOMA-IR change from baseline, LS mean (SE): −1.58(0.17)
  HOMA-β change from baseline, LS mean (SE): 5.57(3.08)
  HbA1c change from baseline, LS mean (SE): −0.83(0.06) % p
  LDL-C change from baseline, LS mean (SE): 1.86(1.68) mg/dL
  Subjects achieving HbA1c target of <7%: (68.09) %
  Subjects achieving HbA1c<6.5%: 15.96%
  Subjects achieving therapeutic response (HbA1c change >0.5% or HbA1c<7%): 88.30%
  UACR change from baseline, LS mean (SE): −21.65(7.38) g/kg
  UGCR change from baseline, LS mean (SE): 64.70(2.58) mg/mg
  diastolic blood pressure change from baseline, LS mean (SE): −4.19(0.79) mmHg
  fasting c-peptide change from baseline, LS mean (SE): −0.08(0.02) ng/ml
  leptin change from baseline, LS mean (SE): −2.64(0.49) ng/mL
  Change from baseline in total cholesterol, ANCOVA LS mean difference: 3.01 mg/dL
Week 12, vs dapagliflozin
  FPG change from baseline, LS mean difference: 0.42 mg/dL
  HDL-C change from baseline, LS mean difference: 0.06 mg/dL
  HOMA-IR change from baseline, LS mean difference: 0.02
  HOMA-β change from baseline, LS mean difference: −3.17
  HbA1c change from baseline, LS mean difference: −0.03 % p
  LDL-C change from baseline, LS mean difference: 1.30 mg/dL
  Odds ratio for achieving HbA1c<6.5%: 0.51
  Odds ratio for achieving HbA1c<7%: 1.21
  Odds ratio for achieving therapeutic response: 2.04
  UACR change from baseline, LS mean difference: −18.27
  UGCR change from baseline, LS mean difference: 19.57 mg/mg
  body weight change from baseline, LS mean difference: -0.19 kg
  diastolic blood pressure change from baseline, LS mean difference: 0.16 mmHg
  fasting c-peptide change from baseline, LS mean difference: 0.01 ng/mL
  leptin change from baseline, LS mean difference: 0.07 ng/mL
  systolic blood pressure change from baseline, LS mean difference: 0.26 mmHg
  total cholesterol change from baseline, LS mean difference: 3.01 mg/dL
  triglyceride change from baseline, LS mean difference: 2.57 mg/dL
Week 12, listed as enavogliflozin
  Subjects achieving HbA1c target of <7%: 68.09%
[5]
  Change from baseline in Total cholesterol, ANCOVA LS mean (SE): 7.26(1.98) mg/dL
  Change from baseline in Total cholesterol, Mean (SD): 5.74(18.70) mg/dL
  Change from baseline in total cholesterol, Median: 6.00 mg/dL
  fasting Total cholesterol, Mean (SD): 157.39(31.50) mg/dL
  fasting Total cholesterol, Median: 150.00 mg/dL
Week 12, per-protocol set
  Change from baseline in FPG, ANCOVA LS mean difference: 0.42 mg/dL
  Change from baseline in HbA1c, ANCOVA LS mean difference: −0.03 % p
  Change from baseline in body weight, ANCOVA LS mean difference: -0.19 kg
  Change from baseline in fasting c-peptide, ANCOVA LS mean difference: 0.01 ng/mL
  Odds ratio for achieving HbA1c target of <6.5%, logistic regression model: 0.51
  Odds ratio for achieving therapeutic glycemic response, logistic regression model: 2.04
[6]
  Change from baseline in FPG, ANCOVA LS mean (SE): -29.70 mg/dL
  Change from baseline in FPG, Mean (SD): -27.74 mg/dL
  Change from baseline in FPG, Median: -26.00 mg/dL
  Change from baseline in HbA1c, ANCOVA LS mean (SE): −0.83 % p
  Change from baseline in HbA1c, Mean (SD): −0.77 % p
  Change from baseline in HbA1c, Median: −0.65 % p
  Change from baseline in body weight, ANCOVA LS mean (SE): −2.81(0.23) kg
  Change from baseline in body weight, Mean (SD): −2.78(2.48) kg
  Change from baseline in body weight, Median: -2.75 kg
  Change from baseline in fasting c-peptide, ANCOVA LS mean (SE): −0.08(0.02) ng/mL
  Change from baseline in fasting c-peptide, Mean (SD): −0.07(0.21) ng/mL
  Change from baseline in fasting c-peptide, Median: -0.07 ng/mL
  FPG, Mean (SD): 117.00 mg/dL
